The values below come from patent US20240092744A1, “TRICYCLIC COMPOUND, AND PREPARATION METHOD THEREFOR AND MEDICAL USE THEREOF” (THE NATIONAL INSTITUTES OF PHARMACEUTICAL R&D CO., LTD., priority 2020, published 2024).

Test [1] can be described thus: Determination of aldehyde capture rate (nonenal as model aldehyde, HPLC quantification). The following applies: for Aldehyde consumption (100%): 0.05 mM compound, 0.025 mM nonenal, room temperature; for Capture rate (slope of the capture curve per unit time): higher absolute value of the slope = higher capture rate. As to the method: In the aldehyde capture test disclosed in the present invention, the stable lipid metabolite, nonenal, was used as the model aldehyde to react with the compound of the Example. The specific protocol was as follows.
0.05 mM of the compounds of the Examples of the present invention were precisely weighed respectively and dissolved in 1.2 mL of a mixed solution (v/v=1:1) of triolein (Aladdin, G105172-5g) and linoleic acid (Aladdin, L100442-25g), respectively. 2.5 mL of PBS (Solarbio, P1020) solution containing 20% Captisol® (Aladdin, Cl25030-25 g) was added, and the solution was stirred at room temperature overnight. After the example compound was completely dissolved, 0.025 mM nonenal (Sigma, 255653-5G) was added, and the solution was stirred vigorously at room temperature. […] The solution was mixed vigorously by vortex for 2 minutes, and centrifuged at a low speed of 1000 r/min for 3 minutes. The supernatant was transferred to an injection vial. The nonenal in the reaction mixture was analyzed quantitatively by high performance liquid chromatography. The adduct resulted from the example compound of the present invention and nonenal was analyzed qualitatively by high performance liquid chromatography-mass spectrometry.
Liquid Chromatograph: Waters I Class;
Column: ACQUITY UPLC HSS T3 1.8 μm;
Column temperature: 40° C.;
Liquid chromatography condition: mobile phase A: acetonitrile containing 0.1% formic acid; B: water containing 0.1% formic acid;
Injection volume: 0.5 mL.
Gradient of the mobile phases: […]
In the developed detection method, the retention time of the model aldehyde nonenal was 2.42 minutes. • Mass spectrometry conditions: • Mass spectrometer: Waters TQ-S micro • Ion source: ESI^+ • Capillary voltage: 0.5 kV • Cone voltage: 10V • Source temperature: 150° C. • Degassing temperature: 500° C., degassing flow: 1000 L/Hr • SIM mode • m/z: 225.24 [(mExample 1−OH)+H]^+, 365.42 [madduct 1+H]^+
The time-varying diagram of the capture reaction of the compounds of the examples of the present invention to nonenal is shown in FIG. 1.

The test system of test [2] is allergic conjunctivitis animal model. The test can be described thus: Therapeutic effect in C48/80-induced allergic conjunctivitis animal model. In kind it is in vivo, Female Wistar rats. The conditions noted are these: Wistar rats, 10 μL per eye, examined 20 minutes after administration. The text has this:
C48/80 is a polymer formed by the condensation of N-methyl-p-methoxyphenethylamine with formaldehyde, which acts directly on G protein and induces mast cell degranulation. After degranulation, the mast cell releases active substances such as histamine and kinin, which can cause acute type I allergic reactions such as telangiectasia and enhanced permeability. It can cause allergic conjunctivitis if applied topically to the ocular surface.
Female Wistar rats were used as the research subjects. Wistar rats (Vital River) were randomly divided into groups (5 animals per group, a total of 10 eyes). The groups are as follows: normal control group, model control group, positive drug group, and example administration group. The inflammation model was established in these groups except for the normal control group. Emedastine Difumarate Eye Drops (Emadine®, Alcon, H20181192) was used as the positive drug. Model establishment, administration and evaluation processes were as follows. […]
After 10 minutes of stimulation, different drug treatments were carried out according to the group settings. […] The clinical score was evaluated individually on the eyes of each animal according to the McDonald-Shadduck scoring system (GB/T 28538-2012). […]

The test system of test [3] is noninfectious uveitis animal model. The test can be described thus: Therapeutic effect in lipopolysaccharide-induced noninfectious uveitis animal model (eye drops). The format is in vivo, Female lewis rats. As to the method:
Female lewis rats were used as the research subjects. Lewis rats (Vital River) were randomly divided into groups (4 animals per group, a total of 8 eyes). The groups are as follows: normal control group, model control group, and example administration group. The inflammation model was established in these groups except for the normal control group.
Formulation of eye drops: • (1) Formulation of drug vehicle stock solution: […] of Na2HPO4.12H2O (Xilong Scientific, 9009012-01-09), 19 mg of NaH2PO4.2H2O (Xilong Scientific, 9009013-01-09) and 9500 mg of β-cyclodextrin (Sigma, E1930253) were precisely weighed and dissolved in 30 mL sterile water for injection (Beijing CR Double-Crane), followed by addition of […] of PEG-400 (Solarbio, 222U011). The solution was mixed well, and made up to 50 mL with water for injection. • (2) Formulation of drug solution: 10 mg of the compound of Example 2 of the present invention was weighed and dissolved in 1 mL of the vehicle stock solution, and the resulting solution was made up to 2 mL with water for injection. The content of each substance is as follows: Na2HPO4.12H2O 0.83%, NaH2PO4.2H2O 0.017%, β-cyclodextrin 9.5%, PEG-400 5.0%, active compound 0.5%. • (3) The pH value of the formulated drug solution was determined by pH test paper. If the pH value was not within 7.3±0.05, then it was adjusted to this range with 1 N HCl or 1 N NaOH. […]
The animal model was a noninfectious uveitis animal model established by intraperitoneal injection of lipopolysaccharide (derived from Escherichia coli, 055:B5, Sigma, L2880-100MG, injection dose: 2 mg/kg). […] The ocular inflammation of the animals in each group was examined with a slit lamp microscope (Jiangxi Jiangfeng, LYL-S), and evaluated according to the McDonald-Shadduck scoring system (GB/T 28538-2012).
The animals were sacrificed, and the bilateral eyeballs were enucleated. […] Quantitative analysis of total protein in aqueous humor was performed on the supernatant by a BCA protein quantification kit (Beyotime, P0010). […]

Take `CC(C)(O)c1cc2c(cc1N)Oc1ccccc1O2` [Example 4, 2-(3-Aminodibenzo[b,e][1,4]dioxin-2-yl)propan-2-ol]: the “Aldehyde consumption (100%)” value was 38.33% in test [1] (135 minutes) and 48.10% in test [1] (180 minutes). In addition, the results for the “Capture rate (slope of the capture curve per unit time)” value in test [1] (135 minutes) and in test [1] (180 minutes) were −0.27 and −0.23, respectively. Moreover, the “Therapeutic effect on allergic conjunctivitis (McDonald-Shadduck score, FIG. 2, in words)” value in test [2] is “good therapeutic effect”.
Consider `Cn1c2ccccc2c2cc(N)c(C(C)(C)O)nc21` [Example 2, 2-(3-Amino-9-methyl-9H-pyrido[2,3-b]indol-2-yl)propan-2-ol], for which the “Ocular score (McDonald-Shadduck ocular inflammation score)” value in test [3] (0.5% eye drops, 20 μL/eye, 24 hours after LPS modeling, mean ± standard deviation, model control 17.0 ± 6.4, normal control 4.5 ± 0.8) worked out at 8.6 ± 1.1. Also, the “Protein concentration in aqueous humor” value in test [3] (0.5% eye drops, 20 μL/eye, 24 hours after LPS modeling, mean ± standard deviation, model control 1062.7 ± 423.6, normal control 225.5 ± 65.4) was 376.4 ± 164.0 µg/mL. Also, the “Therapeutic effect in ocular inflammation animal model (in words)” value in test [3] (LPS-induced uveitis, Lewis rats, eye drops) is reported as “showing a therapeutic effect”. For the same compound, in test [1] (135 minutes), the “Aldehyde consumption (100%)” value amounted to 43.48% and the “Capture rate (slope of the capture curve per unit time)” value is −0.34. Besides, in test [1] (180 minutes), the “Aldehyde consumption (100%)” value turned out to be 57.75% and the “Capture rate (slope of the capture curve per unit time)” value is reported as −0.31.
In the case of `Cn1c2cc(Cl)ccc2c2cc(N)c(C(C)(C)O)nc21` [Example 12, 2-(3-Amino-7-chloro-9-methyl-9H-pyrido[2,3-b]indol-2-yl)propan-2-ol], in test [1] (135 minutes), the “Aldehyde consumption (100%)” value is listed as 17.18% and the “Capture rate (slope of the capture curve per unit time)” value is recorded as −0.24. In test [1] (180 minutes), the “Aldehyde consumption (100%)” value is 30.31% and the “Capture rate (slope of the capture curve per unit time)” value is −0.16.
